Values of other authors in PMC10251984, “Interactions of IDO and the Kynurenine Pathway with Cell Transduction Systems and Metabolism at the Inflammation–Cancer Interface” (Cancers, 2023).
Like-named read-outs stand apart in the source and are kept apart here.

Legend:
IDO2 [1] = test system: IDO2; parameters: method as in PMID 29247038; conditions: relative to the D-isomer
[2] = test system: activated human CD4+T cells; parameters: method as in PMID 32641388; conditions: each compound separately
multiple myeloma = test system: multiple myeloma; parameters: method as in PMID 29089645, PMID 29487385
PD-L1 [3] = conditions: disrupts the interaction between Myc and HIF-1α
Lewis lung carcinomas = test system: Lewis lung carcinomas; parameters: method as in PMID 32847988; conditions: combination with celecoxib
AHR = test system: AHR; parameters: method as in PMID 34025677; conditions: AHR antagonist; induction by kynurenine in CD8+ T cells
T cell activation = test system: T cell activation; parameters: method as in PMID 35663990; conditions: glutaminase inhibitor; autoimmune hepatitis
IDO1 [4] = test system: IDO1; parameters: method as in PMID 30227893, PMID 35269712; conditions: IDO1 inhibitor; read-out: IC50 in direct enzyme assay
[5] = parameters: method as in PMID 29040756, PMID 25330068
[6] = test system: Metastatic prostate cancer; conditions: combination with sipuleucel-T; Phase 2
Metastatic breast cancer = conditions: compared with taxane; Phase 2
IDO [7] = test system: IDO; parameters: method as in PMID 32024760; conditions: IDO activity enhanced
IDO1 [8] = test system: IDO1; parameters: method as in PMID 36389710
IDO2 [9] = test system: IDO2; parameters: method as in PMID 36389710
T cell = test system: T cell; parameters: method as in PMID 31648326; conditions: MEK inhibitor
IDO1 [10] = test system: IDO1; parameters: method as in PMID 28212885; conditions: COX-2 inhibitor
experimental arthritis = test system: experimental arthritis; parameters: method as in PMID 33941676; conditions: IDO-dependent manner
PD-L1 [11] = test system: PD-L1; parameters: method as in PMID 33220359
[12] = test system: triple-negative breast cancer, colon and lung syngeneic tumor models; parameters: method as in PMID 35265193; conditions: combined with an anti-PD-L1 antibody
IDO [13] = test system: IDO; parameters: method as in PMID 35120895; conditions: via inhibition of the JAK–STAT–IRF1 pathway
PD-L1 [14] = test system: PD-L1; parameters: method as in PMID 35120895; conditions: via inhibition of the JAK–STAT–IRF1 pathway
IDO1 [15] = conditions: COX-2 inhibition; IFNγ-induced

## Cn1cc(C[C@H](N)C(=O)O)c2ccccc21 (single isomer, unassigned; isomer 1) [L-isomer, 1-methyl-tryptophan]
IDO2 [1]
  inhibiting IDO2: much more active

## O=CC[C@@H](O)[C@H](O)[C@H](O)CO [2-deoxyglucose]
[2]
  IFNγ production: inhibit IFNγ production

## O=C(CCCCCCNC(=O)c1cnc(N(c2ccccc2)c2ccccc2Cl)nc1)NO [ACY241]
Multiple myeloma
  efficacy against multiple myeloma: effective

## C=C1C(=O)O[C@H]2C[C@@H](C)[C@@H]3[C@@H](OC(C)=O)C[C@H](O)[C@@]3(C)[C@@H](OC(C)=O)[C@H]12 [Britannin]
PD-L1 [3]
  expression of PD-L1: reducing the expression of PD-L1

## Nc1ncnc2c1ncn2[C@@H]1O[C@@H]2COP(=O)(O)O[C@H]3[C@@H](O)[C@H](n4cnc5c(N)ncnc54)O[C@@H]3COP(=O)(O)O[C@H]2[C@H]1O [CDA, cyclic di-adenyl monophosphate]
Lewis lung carcinomas
  survival: enhanced survival
  tumor growth: controlled tumor growth

## Cc1ccccc1N=Nc1ccc(NC(=O)c2ccnn2C)c(C)c1 [CH223191]
AHR
  induction of PD-1: blocked the induction of PD-1

## [N-]=[N+]=CC(=O)CC[C@H](N)C(=O)O [DON, 6-diazo-5-oxo-L-norleucine]
T cell activation
  T cell activation: inhibited T cell activation

## NS(=O)(=O)NCCNc1nonc1C(=NO)Nc1ccc(F)c(Br)c1 [Epacadostat]
IDO1 [4]
  IC50: […]
melanoma; combined with the PD-1 antagonist pembrolizumab
  trial outcome: no significant benefit
melanoma; randomized trial combined with pembrolizumab in patients with melanoma
  clinical efficacy: clinically ineffective

## O=Cc1c2[nH]c3ccccc3c2cc2[nH]c3ccccc3c12 [FICZ, 6-Formylindolo-[3,2-b]-carbazole]
[5]
  metabolism / removal: rapidly removed

## Cn1cc(C[C@@H](N)C(=O)O)c2ccccc21 [Indoximod, 1-methyl-D-tryptophan]
[6]
  trial outcome: [224] Combination with sipuleucel-T yielded radiological and clinical improvement
Metastatic breast cancer
  trial outcome: [226] No improvement compared with taxane

## CC(=O)NCCc1c[nH]c2ccc(O)cc12 [N-acetyl-5-hydroxy-tryptamine]
IDO [7]
  mode of action on IDO activity: positive allosteric modulator

## CCCCCCCC1=Nc2ccccc2C(=O)C1O (stereo not shown) [PQS, 2-heptyl-3-hydroxy-4-quinolone]
IDO1 [8]
  expression of IDO1: inhibits
IDO2 [9]
  expression of IDO2: inhibits

## Clc1cc2c(cc1Cl)Oc1cc(Cl)c(Cl)cc1O2 [TCDD, 2,3,7,8-tetrachloro-dibenzo-dioxin]
[5]
  metabolism / removal: poorly metabolized

## CC(=O)Nc1cccc(-n2c(=O)n(C3CC3)c(=O)c3c(Nc4ccc(I)cc4F)n(C)c(=O)c(C)c32)c1 [Trametinib]
T cell
  T cell viability and proliferation: promote T cell viability and proliferation

## Cc1ccc(-c2cc(C(F)(F)F)nn2-c2ccc(S(N)(=O)=O)cc2)cc1 [celecoxib]
IDO1 [10]
  induction of IDO1: prevented the induction of IDO1

## Nc1ncn([C@H]2C[C@H](O)[C@@H](CO)O2)c(=O)n1 [decitabine]
Experimental arthritis
  occurrence of relapse: prevented the occurrence of relapse
  symptoms of arthritis: reduced the symptoms of arthritis

## COc1ccc(CCc2cc(OC)c(OC)c(OC)c2)cc1O [erianin]
PD-L1 [11]
  PD-L1 expression: inhibited PD-L1 expression

## CCCNS(=O)(=O)Nc1ncnc(OCCOc2ncc(Br)cn2)c1-c1ccc(Br)cc1 [macitentan]
[12]
  anti-tumor efficacy: improved anti-tumor efficacy

## CN(C)C(=N)N=C(N)N [metformin]
[2]
  IFNγ production: inhibit IFNγ production

## O=c1c(O)c(-c2cc(O)c(O)c(O)c2)oc2cc(O)cc(O)c12 [myricetin]
IDO [13]
  induction of IDO by IFNγ: prevent the induction
PD-L1 [14]
  induction of PD-L1 by IFNγ: prevent the induction

## CS(=O)(=O)Nc1ccc([N+](=O)[O-])cc1Oc1ccccc1 [nimesulide]
IDO1 [15]
  induction of IDO1: prevented induction of IDO1
